melting point [°C]	Structure (SMILES)
149 to 150	CCCN1CC(c2cccc(Cl)c2)=C(c2ccc(S(N)(=O)=O)cc2)C1=O
147 to 148	N#Cc1ccc(N(Cc2ccc(O)c(Br)c2)n2cnnc2)cc1-c1cc2ccccc2o1
170 to 172	Clc1c[nH]c2ncnc(N3CCCCC3)c12
66 to 68	O=C(OC1CCCCCCCCCCC1)c1ccccc1C(=O)OC1CCCCCCCCCCC1
93 to 95	CC(C)CN(Cc1ccccc1)c1ncnc2c1ncn2C1CCCCO1 (configuration not stated)
128 to 131	Cc1cc(N2CCN(Cc3ccc(F)cc3)C2=O)sc1C(=O)NCc1cccs1
167 to 170	CCOCCc1nc(N)cc(=O)[nH]1
62 to 63	CCCCn1c(C)nc(SC)nc1=O
98 to 99	CC(C)(C)OC(=O)Oc1cc2c(s1)CCN(C(C(=O)C1CC1)c1ccccc1F)C2 (configuration not stated)
178 to 179	FC1CC(Nc2ncnc3[nH]ncc23)CCC1OCC(F)(F)c1ccccc1 (configuration not stated)
230	Cc1ccc(/C=C/c2ccc(Cl)cc2[N+](=O)[O-])c([N+](=O)[O-])c1
111	O=C(Cc1ccnc(Br)c1)c1ccccn1
251 to 253	CC(C)n1nc(-c2c(-c3ccccc3)nc(N)nc2N2CCOCC2)ccc1=O
263	CC1N(CCCCS(=O)(=O)O)c2ccc3ccccc3c2C1(C)C (configuration not stated)
59 to 60	C(=C\c1nc(COc2cccc(CCCn3cncn3)c2)co1)/c1ccccc1
66 to 68	Cc1sc(CO)cc1CC#N
177 to 178	COc1cc2ncnc(N3CCN(C(=O)NCCc4ccc(Cl)cc4)CC3)c2cc1OC
185 to 188	CC12CCC(OC(=O)c3ccc([N+](=O)[O-])cc3)CC1=CCC1C2CCC2(C)C(=NO)CCC12 (configuration not stated)
260	COc1ccc(-n2nc(S)nc2-c2ccccc2)cc1
86 to 88	CC(=O)C(=Cc1ccc(C#N)cc1)C(C)=O
101 to 103	O=[N+]([O-])c1cc2c(cc1[N+](=O)[O-])OC(CC(F)(F)F)(C(F)(F)F)O2
168 to 175	Cc1cc(C(=O)CCc2cc(-c3ccc(C(F)(F)F)cc3)nn2CC2CC2)ccc1OCC(=O)O
179 to 180	CCCCn1c(=O)c(NC(=O)Nc2c(C(C)C)ccc(NC(=O)c3cccnc3)c2C(C)C)c(-c2cccc(OC)c2)c2cccnc21
138	CCCCCCC1C(=O)NC(C(=O)SCc2ccccc2)(C(O)C2C=CCCC2)C1(C)O (configuration not stated)

melting point [°C]	Structure (SMILES)
225 to 226	O=C1NCCN1c1ccc(S(=O)(=O)Nc2ccc(F)c(F)c2)cc1
250 to 252	CCCCc1cc2c(=O)n3cc(C(=O)O)ccc3nc2s1
237 to 240	CN1CCn2c1c(-c1ccccc1)c1ncccc1c2=O
187 to 188	COc1cc(-c2cc(=O)c3ccc(OCC4CO4)cc3o2)cc(OC)c1OC (configuration not stated)
140 to 147	NS(=O)(=O)c1ccsc1C1=CC(=O)CCC1
208	CC(C)n1nc(-c2cnc(N)nc2-c2ccc(F)c(F)c2)ccc1=O
213 to 214	CC(O)=C(C#N)C(=O)Nc1ccc(Br)cc1
126 to 129	CC(=O)N(O)Cc1ccc(C(O)C#Cc2ccsc2)cc1 (configuration not stated)
141 to 142	O=C(O)COc1cccc2cc(COCC(c3ccccc3)c3ccccc3)oc12
89 to 92	COCCOc1ccc(/C=C(\C)C(=O)NS(=O)(=O)c2cccc(Cl)c2)c(Oc2ncc(C(F)(F)F)cc2Cl)c1
98 to 100	CCOC(=O)/C=C/C=C(c1ccc(Cl)cc1)c1ccc(Cl)cc1
215 to 216	COc1cc2cc(-c3cc4cc(OC)c(OC)c(C(C)C)c4cc3C)c(C)cc2c(C(C)C)c1OC
200	N#Cc1nc2ncccc2[nH]1
165 to 167	CCOC(=O)C=Cc1c(C)nc(SCc2ccc(OC)cc2)n1C
187 to 188	O=C(c1cccc(Br)c1)C(Br)C(Br)c1cc(Br)ccc1[N+](=O)[O-] (configuration not stated)
77 to 80	CCCCOc1cc(=O)n(C)c2ccccc12
82 to 84	COc1cc2c(cc1OC(C)C)C(=O)C1c3c(cc(OC(C)C)c(OC)c3-2)CCN1C (configuration not stated)
155 to 156	Cc1cc2c(s1)SCCNC2=O
53	CCc1noc(CC(=O)N(C)c2ccccc2)n1
174 to 177	CC(=O)Nc1ccn(C2OC(COC(C)=O)CC2OC(C)=O)c(=O)n1 (configuration not stated)
232 to 235	NCC1CCN(c2c(F)cc3c(=O)c(C(=O)O)cn(C4CC4)c3c2F)C1 (configuration not stated)
150 to 152	O=C(O)[C@H](Cc1ccccc1)C[C@@H](Cc1ccccc1)C(=O)O
107 to 109	CCC(CC)c1nccc2c(CC(=O)O)cccc12
261 to 263	O=S1c2ccccc2Nc2nccnc21 (configuration not stated)

melting point [°C]	Structure (SMILES)
249 to 250	O=C(NNS(=O)(=O)c1ccccc1)c1cnc2ccccc2c1
245 to 250	O=C(O)c1ccc(=O)n(Cc2ccc(-c3ccccc3)cc2)c1
167 to 169	C=CCOC(=O)c1cccc(NC(=O)NCC(=O)Nc2ccccc2C(=O)c2ccc(OC)cc2)c1
138 to 139	O=S(=O)(Oc1ccc(-c2cc3ccc(OS(=O)(=O)c4ccccc4)cc3s2)cc1)c1ccccc1
209 to 210	Cc1c(NC(=O)CC(C)(C)C)c(C)c2c(c1-c1cccc([N+](=O)[O-])c1)OCC2c1ccc(C(C)C)cc1 (configuration not stated)
135 to 137	O=[N+]([O-])c1cc(Cl)cc2c1OCCO2
148 to 150	COc1ccc(C)cc1NC(=O)Nc1ccc(N2CCN(C(=O)Nc3ccc(OCC(O)CO)cc3C)CC2)cc1 (configuration not stated)
148 to 149	CCOC(=O)c1c(S(N)(=O)=O)c2ccccc2n1CC
118 to 120	Cc1nn(CCO)c(C)c1Sc1cc(Cl)cc(Cl)c1
250 to 252	O=C1c2c(cc(O)c(Cl)c2Cl)CC1c1ccccc1 (configuration not stated)
80 to 81	COC(=O)COc1cccc2c(CCO)c(CCOC(C)=O)oc12
152	C#Cc1c(O)c(C)c(C)c(O)c1C#C
74 to 76	CCC(=O)N(O)C(C)c1ccco1 (configuration not stated)
80 to 82	O=C(NOC(=O)Oc1ccccc1)Oc1ccccc1
240 to 241	COc1ccc2c(c1)S(=O)c1nccnc1N2 (configuration not stated)
182 to 184	Cc1cncnc1N1CCC(C(N)=O)CC1
98 to 110	CCOC(=O)c1cnc(-c2ccc(C(F)(F)F)cc2)s1
170 to 174	Nc1c(-n2cncn2)cnn1-c1c(Cl)cc(C(F)(F)F)cc1Cl
163 to 165	N#CN1CCC2(CC1)CN(c1ccccc1[N+](=O)[O-])c1cc(Cl)ccc12
170 to 173	Cc1cc2c(c(N3CC[C@H](N(C)C)C3)c1-c1ccccc1)OC(C#N)(C(=O)N1CCCCC1)N2 (some centres not stated)
116 to 117	COc1ccc(C=O)cc1C(=O)NCc1ccc(C(F)(F)F)cc1
88 to 89	Cc1oc(C)c(C(=O)OC2CC(C)(C)N(CC#N)C(C)(C)C2)c1C
238 to 240	Oc1ccc2c(c1)COc1c-2cc2ccc(O)cc2c1-c1cc(F)cc(F)c1
178 to 179	CCNC(=O)N(C)c1c(C)cc(C(O)(C(F)(F)F)C(F)(F)F)cc1C

melting point [°C]	Structure (SMILES)
36 to 38	N#CSc1ccc(N)c(F)c1
180 to 182	CC(C)c1ccc(N(Cc2cnn(CC(=O)O)c2)C(=O)C2CCCc3c(OCc4ccccc4)cccc32)cc1 (configuration not stated)
198 to 200	CC1CC(=O)c2cccc(C(N)=S)c21 (configuration not stated)
59 to 60	CCc1nc(-c2ccc(OC)cc2)c(-c2cccnc2)s1
145 to 146	COC(=O)c1ccc2c(c1)S(=O)(=O)c1ccccc1C2=O
260 to 262	CC[C@H](NC(=O)OC(C)(C)C)c1nc2c(C(F)(F)F)cccc2c(O)c1C(=O)Nc1nccs1
237 to 239	Cc1oc(-c2ccccc2)nc1Cc1cc2cc(C=CC=C3OC(=O)NC3=O)ccc2o1
161 to 163	Cc1ccc(CCNC(=O)c2ccc3n2Cc2ccccc2N(C(=O)c2ccc(-c4ccccc4C)c(C)c2)C3)cc1
57 to 62	CC(C)C[C@H](NCc1ccc(C(C)(C)C)cc1)C(=O)N1CCN(C(c2ccc(F)cc2)c2ccc(F)cc2)CC1
102 to 105	CCNC(=O)NC[C@H](O)c1cccc(O)c1
164	CCCCc1ncc(CCC(=O)O)n1Cc1ccccc1Cl
117 to 120	COc1ccc(Sc2nccn2C)c([N+](=O)[O-])c1
123	CN(CC(F)(F)F)C(=O)COc1nnc(-c2ccccc2)s1
105 to 107	CNCc1nc(CSCCNC(=C[N+](=O)[O-])NC)cs1
164 to 165	COc1ccc2c(c1)NC(=O)c1ccccc1O2
240 to 242	Cc1nc(-n2ccc(O)cc2=O)sc1C(=O)NCC1CC1
263 to 265	OC[C@@H](O)CCOc1ccc(-c2nc3c4ccccc4c4ccccc4c3[nH]2)cc1
71 to 73	CC(C)(C)NC(=O)NOCC(O)CN1CCCCC1 (configuration not stated)
137	Cc1cccc(C(N)c2ccc3nc(NC4CCN(CCO)CC4)n(Cc4nc(C)ccc4O)c3c2)c1 (configuration not stated)
222 to 228	COc1cc2ncc(C#N)c(Nc3cccc(N)c3)c2cc1OC
164	CCOC(=O)C1=C(C)N(C)C(C)=C(C(=O)OC)C1c1cc([N+](=O)[O-])ccc1Cl (configuration not stated)
148 to 149	O=C1CCc2ncc3c(c21)CCO3
204 to 205	O=C(O)CC1c2ccccc2C(=O)N1c1ccccc1 (configuration not stated)

Structure (SMILES)	melting point [°C]
CC(=O)OC1CCC2(C)C(=CC(=O)C3C4CCC(=O)C4(C)CCC32)C1=O (configuration not stated)	193 to 195
C=C[C@H]1CN2CC[C@H]1C[C@H]2[C@H](OC(=O)c1ccc(OCCCCCC)cc1)c1ccnc2ccccc12	70
CC(=O)NC(C)Cc1ccccc1 (configuration not stated)	91 to 93
Cn1cnc([N+](=O)[O-])c1CBr	130 to 132
CCOC(=O)c1ncn2c1[C@@H]1CCN1C(=O)c1c(Cl)cccc1-2	184 to 185
CC(=O)NC(COC(F)F)C(=O)NCc1ccccc1 (configuration not stated)	173
CCOC(=O)CN(CC1CC2c3cccc4[nH]cc(c34)CC2N(C)C1)C(=O)NC(C)C (configuration not stated)	118 to 120

Reference: a melting point compilation (Tetko et al.; mined from patent text by program, amines drawn as free bases though some values may be those of a salt)
